Patent US12364702B2, “Highly active sting protein agonist compound” (ADLAI NORTYE BIOPHARMA CO., LTD., priority 2018, dated 2025)
Like-named read-outs stand apart in the source and are kept apart here.

Tests used:
Assay type in all cases: cell-based
[1] = molecular target: T1, STING WT variant (Homo sapiens, UniProt Q86WV6); experiment: SEAP reporter assay in HEK-Blue ISG KO-STING cells transfected with STING WT variant (Method 1); details: 24 h, SEAP signal vs 0.5% DMSO
T1 construct: host or cells: HEK-Blue ISG KO-STING cells (Invivogen, hkb-kostg)
Text: (§1) Activation of STING can be determined using a SEAP reporter assay in HEK-Blue™ ISG KO-STING cells (Invivogen, cat #hkb-kostg) transfected with plasmids expressing STING variants (WT & HAQ) (referred to WO2017/175147A1). STING variants (WT & HAQ) vector were constructed based on STING-232H vector (Origene, RC208418). GFP vector (VT2069) was bought from Youbio. The detailed protocol as follows: HEK-Blue™ ISG KO-STING cells were harvest and seeding into 96 well plate, the final cell number was 0.8×10^5 cells/well. Transfections were prepared using Lipofectamine 2000 (Invitrogen, Cat #11668-027) following the manufacturer's instructions (Lipo2000/DNA=1/10), 20 ul of transfection suspension containing 1 ng STING vector was added to cell culture plate and incubated at 37° C., 5% CO2 for 24 hours. After 24 hours' incubation, compounds were added at proper concentration, and the final DMSO concentration was 0.5%. After 24 h incubation, the supernatant was collected to detect SEAP signal using Great EscAPe SEAP chemiluminescence KIT (Clontech, cat #631738) and cells were collected to detect cell viability using CellTiter-Glo Luminescent Cell Viability Assay (Promega, cat #G7573) following the manufacturer's instructions. The data were described by the ratio of the stimulating signal of compounds to 0.5% DMSO.

[2] = molecular target: STING (Homo sapiens, UniProt Q86WV6); experiment: IFN-β secretion from THP1 by STING activation (hIFNβ ELISA)
Sequence of STING (Q86WV6 whole entry): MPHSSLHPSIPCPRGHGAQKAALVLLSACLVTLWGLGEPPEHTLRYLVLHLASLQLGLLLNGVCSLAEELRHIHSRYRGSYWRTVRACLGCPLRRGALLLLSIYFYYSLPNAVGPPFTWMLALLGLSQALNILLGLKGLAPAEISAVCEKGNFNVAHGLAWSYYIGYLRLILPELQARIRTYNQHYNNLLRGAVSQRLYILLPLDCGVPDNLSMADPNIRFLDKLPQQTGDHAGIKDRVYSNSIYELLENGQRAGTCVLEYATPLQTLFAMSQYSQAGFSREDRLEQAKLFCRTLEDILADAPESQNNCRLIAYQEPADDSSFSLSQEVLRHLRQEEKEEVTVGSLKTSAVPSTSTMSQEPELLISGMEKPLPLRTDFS
Experimental: In this assay, activation of STING by compounds was evaluated by detecting their ability to stimulate the secretion of IFN-β (interferon-beta) from THP1. THP1 was purchased from National Collection of Authenticated Cell Cultures (Cat #TCHu 57). The top dose of compounds was setted according to their solubility. First, Compounds were 3 times diluted with medium, 8-dose points in total. The final DMSO concentration was 0.2%. THP1 during the logarithmic phase was resuspended to 2×10^6 cells/ml in assay medium. The THP1-cell suspension was dispensed into a 96-well U bottom plate containing 50 ul of compound diluted in medium. After 24 h incubation at 37° C., 5% CO2, the supernatant was collected. The concentration of IFN-β in the supernatant was measured using a human IFNβ ELISA KIT (R&D, DY814-05). The data was fitted with GraphPad Prism or XLfit to calculate EC50 values.

[3] = molecular target: T2, STING HAQ variant (Homo sapiens, UniProt Q86WV6, G230A/R293Q/R71H); experiment: SEAP reporter assay in HEK-Blue ISG KO-STING cells transfected with STING HAQ variant (Method 1); details: 24 h, SEAP signal vs 0.5% DMSO
T2 construct: host or cells: HEK-Blue ISG KO-STING cells (Invivogen, hkb-kostg)
T2 sequence (Q86WV6 whole entry R71H/G230A/R293Q): as the sequence (Q86WV6 whole entry) above, with R71H, G230A, R293Q counted along it
Text: as §1

[4] = 1 ng STING vector, compound 2.5 uM
[5] = THP1 cells; 24 h incubation; IFN-β in supernatant; top dose set according to solubility
[6] = 1 ng STING vector, compound 5 uM
[7] = THP1 cells; 24 h incubation; IFN-β in supernatant; top dose set according to solubility; read-out: hIFNβ ELISA (EC50)

SMILES | Fold change related to DMSO control WT [1, 4] | Fold change related to DMSO control HAQ [3, 6] | EC50 [2, 7] [µM] | other results
CCn1nc(C)cc1C(=O)Nc1nc2cc(C(N)=O)cc(OCCCNC(=O)CN(C)C)c2n1CCC[C@H]1COc2cc(C#N)cc3nc(NC(=O)c4cc(C)nn4CC)n1c23 [Example 15, (S)-1-(3-(7-cyano-2-(1-ethyl-3-methyl-1H-pyrazole-5-carboxamido)-3,4-dihydro-5-oxa-1,2a-diazaacenaphthylen-3-yl)propyl)-7-(3-(2-(dimethylamino)acetamido)propoxy)-2-(1-ethyl-3-methyl-1H-pyrazole-5-carboxamido)-1H-benzo[d]imidazole-5-carboxamide] | 2.11 | 11.61 |  | hIFNβ ELISA (EC50, μM) [2, 5]: inactive
CCn1nc(C)cc1C(=O)Nc1nc2cc(C(N)=O)cc(OCCCOC)c2n1CCC[C@H]1COc2cc(C(N)=O)cc3nc(NC(=O)c4c(Br)c(C)nn4CC)n1c23 [Example 9, (S)-2-(4-bromo-1-ethyl-3-methyl-1H-pyrazole-5-carboxamido)-3-(3-(5-carbamoyl-2-(1-ethyl-3-methyl-1H-pyrazole-5-carboxamido)-7-(3-methoxypropoxy)-1H-benzo[d]imidazol-1-yl)propyl)-3,4-dihydro-5-oxa-1,2a-diazaacenaphthylene-7-carboxamide] | 2.27 | 14.14 | 2.6 | 
CCn1nc(C)cc1C(=O)Nc1nc2cc(C(N)=O)cc(OCC[C@@H](O)CO)c2n1CCC[C@H]1COc2cc(C(N)=O)cc3nc(NC(=O)c4cc(C)nn4CC)n1c23 [Example 38, (S)-3-(3-(5-carbamoyl-7-((R)-3,4-dihydroxybutoxy)-2-(1-ethyl-3-methyl-1H-pyrazole-5-carboxamido)-1H-benzo[d]imidazol-1-yl)propyl)-2-(1-ethyl-3-methyl-1H-pyrazole-5-carboxamido)-3,4-dihydro-5-oxa-1,2a-diazaacenaphthylene-7-carboxamide] | 2.15 | 18.05 |  | hIFNβ ELISA (EC50, μM) [2, 5]: inactive
CCn1nc(C)cc1C(=O)Nc1nc2cc(C(N)=O)cc(OCCCNC)c2n1CCC[C@H]1COc2cc(C(N)=O)cc3nc(NC(=O)c4cc(C)nn4CC)n1c23.Cl [Example 17, (S)-3-(3-(5-carbamoyl-2-(1-ethyl-3-methyl-1H-pyrazole-5-carboxamido)-7-(3-(methylamino)propoxy)-1H-benzo[d]imidazol-1-yl)propyl)-2-(1-ethyl-3-methyl-1H-pyrazole-5-carboxamido)-3,4-dihydro-5-oxa-1,2a-diazaacenaphthylene-7-carboxamide Hydrochloride] | 2.35 | 33.85 |  | EC50 ([2]; read-out: hIFNβ ELISA (EC50); THP1 cells; 24 h incubation; IFN-β in supernatant; top dose set according to solubility): 9.8 µM
CCn1nc(C)cc1C(=O)Nc1nc2cc(C(N)=O)cc(OCCCOC)c2n1CCCC[C@H]1COc2cc(C(N)=O)cc3nc(NC(=O)c4cc(C)nn4CC)n1c23 [Example 8, (S)-3-(4-(5-carbamoyl-2-(1-ethyl-3-methyl-1H-pyrazole-5-carboxamido)-7-(3-methoxypropoxy)-1H-benzo[d]imidazol-1-yl)butyl)-2-(1-ethyl-3-methyl-1H-pyrazole-5-carboxamido)-3,4-dihydro-5-oxa-1,2a-diazaacenaphthylene-7-carboxamide] |  |  |  | Fold change related to DMSO control WT ([1]; compound 4.7 uM): 2.08; hIFNβ ELISA (EC50, μM) [2, 5]: inactive; Fold change related to DMSO control HAQ ([3]; compound 4.7 uM): 8.09
CCn1nc(C)c(Br)c1C(=O)Nc1nc2cc(C(N)=O)cc3c2n1[C@@H](CCCn1c(NC(=O)c2cc(C)nn2CCF)nc2cc(C(N)=O)cc(OCCCOC)c21)CO3 [Example 13, (S)-2-(4-bromo-1-ethyl-3-methyl-1H-pyrazole-5-carboxamido)-3-(3-(5-carbamoyl-2-(1-(2-fluoroethyl)-3-methyl-1H-pyrazole-5-carboxamido)-7-(3-methoxypropoxy)-1H-benzo[d]imidazol-1-yl)propyl)-3,4-dihydro-5-oxa-1,2a-diazaacenaphthylene-7-carboxamide] | 1.79 | 26.64 | > 3 | 

The next lines start with results.

Fold change related to DMSO control WT [1, 4] | Fold change related to DMSO control HAQ [3, 6] | EC50 [2, 7] [µM] | SMILES | other results
2.38 | 40.44 | 1.4 | CCn1nc(C)cc1C(=O)Nc1nc2cc(C(N)=O)cc(OCCCNC(=O)CN3CCOCC3)c2n1CCC[C@H]1COc2cc(C(N)=O)cc3nc(NC(=O)c4cc(C)nn4CC)n1c23 [Example 21, (S)-3-(3-(5-carbamoyl-2-(1-ethyl-3-methyl-1H-pyrazole-5-carboxamido)-7-(3-(2-morpholinoacetamido)propoxy)-1H-benzo[d]imidazol-1-yl)propyl)-2-(1-ethyl-3-methyl-1H-pyrazole-5-carboxamido)-3,4-dihydro-5-oxa-1,2a-diazaacenaphthylene-7-carboxamide] | 
1.99 | 27.10 | 6.7 | CCn1nc(C)cc1C(=O)Nc1nc2cc(C(N)=O)cc(OCCCN(C)C(=O)CN3CCOCC3)c2n1CCC[C@H]1COc2cc(C(N)=O)cc3nc(NC(=O)c4cc(C)nn4CC)n1c23 [Example 29, (S)-3-(3-(5-carbamoyl-2-(1-ethyl-3-methyl-1H-pyrazole-5-carboxamido)-7-(3-(N-methyl-2-morpholinoacetamido)propoxy)-1H-benzo[d]imidazol-1-yl)propyl)-2-(1-ethyl-3-methyl-1H-pyrazole-5-carboxamido)-3,4-dihydro-5-oxa-1,2a-diazaacenaphthylene-7-carboxamide] | 
2.64 | 40.66 | 18.2 | CCn1nc(C)cc1C(=O)Nc1nc2cc(C(N)=O)cc(OCCCN(C)C)c2n1CCC[C@H]1COc2cc(C(N)=O)cc3nc(NC(=O)c4cc(C)nn4CC)n1c23 [Example 18, (S)-3-(3-(5-carbamoyl-7-(3-(dimethylamino)propoxy)-2-(1-ethyl-3-methyl-1H-pyrazole-5-carboxamido)-1H-benzo[d]imidazol-1-yl)propyl)-2-(1-ethyl-3-methyl-1H-pyrazole-5-carboxamido)-3,4-dihydro-5-oxa-1,2a-diazaacenaphthylene-7-carboxamide] | 
 |  | 3.7 | CCn1nc(C)cc1C(=O)Nc1nc2cc(C(N)=O)cc(OC)c2n1CCC[C@H]1COc2cc(C(N)=O)cc3nc(NC(=O)c4cc(C)nn4CC)n1c23 [Example 5, (S)-3-(3-(5-carbamoyl-2-(1-ethyl-3-methyl-1H-pyrazole-5-carboxamido)-7-methoxy-1H-benzo[d]imidazol-1-yl)propyl)-2-(1-ethyl-3-methyl-1H-pyrazole-5-carboxamido)-3,4-dihydro-5-oxa-1,2a-diazaacenaphthylene-7-carboxamide] | Fold change related to DMSO control WT ([1]; compound 22.1 uM): 1.41; Fold change related to DMSO control HAQ ([3]; compound 22.1 uM): 22.85
2.70 | 56.42 | 1.1 | CCn1nc(C)cc1C(=O)Nc1nc2cc(C(N)=O)cc(OCCCN3CCOCC3)c2n1CCC[C@H]1COc2cc(C(N)=O)cc3nc(NC(=O)c4cc(C)nn4CC)n1c23 [Example 24, (S)-3-(3-(5-carbamoyl-2-(1-ethyl-3-methyl-1H-pyrazole-5-carboxamido)-7-(3-morpholinopropoxy)-1H-benzo[d]imidazol-1-yl)propyl)-2-(1-ethyl-3-methyl-1H-pyrazole-5-carboxamido)-3,4-dihydro-5-oxa-1,2a-diazaacenaphthylene-7-carboxamide] | 
